Among the data in ChEMBL document CHEMBL1671724, “IncI1 plasmid carrying extended-spectrum-beta-lactamase gene blaCTX-M-1 in Salmonella enterica isolates from poultry and humans in France, 2003 to 2008” (2010) are MIC values, retold here.

Molecules are shown by their SMILES. Values after ≈ are worked out from the molar mass of the structure shown. A value given as a limit tells only on which side of the number the result lay.

Test [1] in a line: Antimicrobial activity against Salmonella Newport 03-8748 by Etest. As to conditions: Salmonella enterica. It is filed as functional, Salmonella enterica subsp. enterica serovar Newport.
The test system of test [2] is Escherichia coli. Put plainly: Antimicrobial activity against Escherichia coli 03-8748TC1 transconjugant expressing IncI1 plasmid-encoded beta lactamase CTX-M-1 by Etest. It is filed as functional.
Test [3] deals with Salmonella typhimurium. Put plainly: Antimicrobial activity against Salmonella Typhimurium 05-9280 by Etest. To be noted: Salmonella enterica. It is filed as functional, Salmonella enterica subsp. enterica serovar Typhimurium.
For test [4], the system named is Escherichia coli. Put plainly: Antimicrobial activity against Escherichia coli 05-9280TC1 transconjugant expressing IncI1 plasmid-encoded beta lactamase CTX-M-1 by Etest. It counts as functional.
Another test concerns Salmonella. Put plainly: Antimicrobial activity against Salmonella Llandoff 06CEB6542SAL by Etest. It counts as functional.
The test system of test [5] is Escherichia coli. In words: Antimicrobial activity against Escherichia coli 06CEB6542SALTC1 transconjugant expressing IncI1 plasmid-encoded beta lactamase CTX-M-1 by Etest. It counts as functional.
Test [6] concerns Salmonella typhimurium. Put plainly: Antimicrobial activity against Salmonella Typhimurium 06-6550 by Etest. It counts as functional, Salmonella enterica subsp. enterica serovar Typhimurium. As to conditions: Salmonella enterica.
For test [7], the system named is Escherichia coli. In words: Antimicrobial activity against Escherichia coli 06-6550TC1 transconjugant expressing IncI1 plasmid-encoded beta lactamase CTX-M-1 by Etest. It counts as functional.
The nature of test [8]: Antimicrobial activity against Salmonella London 07-819 by Etest. It counts as functional, Salmonella enterica subsp. enterica serovar London. To be noted: Salmonella enterica.
Test [9] deals with Escherichia coli. In words: Antimicrobial activity against Escherichia coli 07-819TC1 transconjugant expressing IncI1 plasmid-encoded beta lactamase CTX-M-1 by Etest. It is filed as functional.
Test [10] relates to Salmonella typhimurium. Put plainly: Antimicrobial activity against Salmonella Typhimurium 08-843 by Etest. It counts as functional, Salmonella enterica subsp. enterica serovar Typhimurium. As to conditions: Salmonella enterica.
The subject of test [11] is Escherichia coli. In words: Antimicrobial activity against Escherichia coli 08-843TC1 transconjugant expressing IncI1 plasmid-encoded beta lactamase CTX-M-1 by Etest. It counts as functional.
In test [12] the test system is Salmonella typhimurium. Put plainly: Antimicrobial activity against Salmonella Typhimurium 08-1537 by Etest. It counts as functional, Salmonella enterica subsp. enterica serovar Typhimurium. To be noted: Salmonella enterica.
The test system of test [13] is Escherichia coli. In words: Antimicrobial activity against Escherichia coli 08-1537TC1 transconjugant expressing IncI1 plasmid-encoded beta lactamase CTX-M-1 by Etest.
Test [14] relates to Salmonella typhimurium. Put plainly: Antimicrobial activity against Salmonella Typhimurium 08-1745 by Etest. It counts as functional, Salmonella enterica subsp. enterica serovar Typhimurium. As to conditions: Salmonella enterica.
Test [15] deals with Salmonella typhimurium. Put plainly: Antimicrobial activity against Salmonella Typhimurium 08-2211 by Etest. It counts as functional, Salmonella enterica subsp. enterica serovar Typhimurium. As to conditions: Salmonella enterica.
Test [16] can be described thus: Antimicrobial activity against Salmonella 4,5,12:i:- 08-2712 by Etest. It counts as functional, Salmonella enterica subsp. enterica serovar 4,[5],12:i:-. As to conditions: Salmonella enterica.
Test [17] concerns Escherichia coli. Put plainly: Antimicrobial activity against Escherichia coli 08-2712TC1 transconjugant expressing IncI1 plasmid-encoded beta lactamase CTX-M-1 by Etest.

For `CC(C)(O/N=C(\C(=O)N[C@@H]1C(=O)N2C(C(=O)[O-])=C(C[n+]3ccccc3)CS[C@H]12)c1csc(N)n1)C(=O)O` [CEFTAZIDIME], the MIC (in general, the lowest concentration found to suppress growth) in test [1] is above 256 µg/mL; against Escherichia coli [2] it was 256 µg/mL (≈ 468 µM); against Salmonella typhimurium [3], above 256 µg/mL; against Escherichia coli [4] it was above 256 µg/mL; in the test with Salmonella, 64 µg/mL (≈ 117 µM); in the test with Escherichia coli [5] it was 8 µg/mL. Also, the MIC against Salmonella typhimurium [6] is 256 µg/mL (≈ 468 µM); in the test with Escherichia coli [7], 64 µg/mL (≈ 117 µM); in test [8], above 256 µg/mL; in the test with Escherichia coli [9], 256 µg/mL (≈ 468 µM); against Salmonella typhimurium [10] it was 256 µg/mL (≈ 468 µM); in the test on Escherichia coli [11], 256 µg/mL (≈ 468 µM). Besides, the minimal inhibitory concentration (MIC) in the test on Salmonella typhimurium [12] is above 256 µg/mL; with Escherichia coli [13] it was 128 µg/mL (≈ 234 µM); in the test on Salmonella typhimurium [14], above 256 µg/mL; in the test on Salmonella typhimurium [15], 256 µg/mL (≈ 468 µM); in [16], 256 µg/mL (≈ 468 µM); against Escherichia coli [17], 64 µg/mL (≈ 117 µM).

In the case of `CO/N=C(\C(=O)N[C@@H]1C(=O)N2C(C(=O)O)=C(CSc3nc(=O)c(O)nn3C)CS[C@H]12)c1csc(N)n1` [CEFTRIAXONE], the minimum inhibitory concentration (MIC) in test [1] stood at 8 µg/mL (≈ 14.4 µM); against Escherichia coli [2] it was 2 µg/mL (≈ 3.61 µM); against Salmonella typhimurium [3] it was 32 µg/mL (≈ 57.7 µM); against Escherichia coli [4] it was 32 µg/mL (≈ 57.7 µM); with Salmonella, 4 µg/mL (≈ 7.21 µM); in the test on Escherichia coli [5] it was 0.5 µg/mL. In addition, the MIC against Salmonella typhimurium [6] came out at 16 µg/mL (≈ 28.9 µM); in the test on Escherichia coli [7] it was 4 µg/mL (≈ 7.21 µM); in [8] it was 8 µg/mL (≈ 14.4 µM); with Escherichia coli [9], 4 µg/mL (≈ 7.21 µM); with Salmonella typhimurium [10], 16 µg/mL (≈ 28.9 µM); in the test with Escherichia coli [11] it was 8 µg/mL (≈ 14.4 µM). Moreover, the MIC stood at 64 µg/mL (≈ 115 µM) in the test on Salmonella typhimurium [12]; 8 µg/mL (≈ 14.4 µM) in the test with Escherichia coli [13]; 16 µg/mL (≈ 28.9 µM) in the test with Salmonella typhimurium [14]; 8 µg/mL (≈ 14.4 µM) with Salmonella typhimurium [15]; 16 µg/mL (≈ 28.9 µM) in test [16]; 8 µg/mL (≈ 14.4 µM) against Escherichia coli [17].
